From ChEMBL document CHEMBL3779879, “Structural hybridization of three aminoglycoside antibiotics yields a potent broad-spectrum bactericide that eludes bacterial resistance enzymes” (2016)
Converted amounts (≈) assume the structure as drawn.

Columns and labels:
Assay type in all cases: functional
Pseudomonas aeruginosa [1] = experiment: Antibacterial activity against Pseudomonas aeruginosa expressing ANT(4')-II
Staphylococcus aureus [2] = experiment: Antibacterial activity against Staphylococcus aureus ATCC 29213
Acinetobacter baumannii [3] = experiment: Antibacterial activity against Acinetobacter baumannii
Pseudomonas aeruginosa [4] = experiment: Antibacterial activity against Pseudomonas aeruginosa ATCC 27853 expressing APH(3')-IIa
Escherichia coli [5] = experiment: Antibacterial activity against Escherichia coli expressing A-site methyltransferase ArmA
Klebsiella pneumoniae = experiment: Antibacterial activity against Klebsiella pneumoniae ATCC 10031
Escherichia coli [6] = experiment: Antibacterial activity against Escherichia coli expressing ANT(2'')-I
Acinetobacter baumannii [7] = experiment: Antibacterial activity against Acinetobacter baumannii expressing AAC(3)-I, APH(3')-VI, ANT(2'')-I
Escherichia coli [8] = experiment: Antibacterial activity against Escherichia coli expressing APH(3')-Ib
Staphylococcus aureus [9] = experiment: Antibacterial activity against Staphylococcus aureus expressing AAC(6')/APH(2'')
Enterobacter cloacae = experiment: Antibacterial activity against Enterobacter cloacae expressing APH(3')-I, ANT(2'')-I, AAC(6')
Staphylococcus aureus [10] = experiment: Antibacterial activity against Staphylococcus aureus expressing ANT(4')-I
Escherichia coli [11] = experiment: Antibacterial activity against Escherichia coli ATCC 25922
Pseudomonas aeruginosa [12] = experiment: Antibacterial activity against Pseudomonas aeruginosa expressing AAC(6')-II
Staphylococcus aureus [13] = experiment: Antibacterial activity against Staphylococcus aureus expressing APH(3'/5'')-III
Escherichia coli [14] = experiment: Antibacterial activity against Escherichia coli expressing AAC(3)-IV

Row | SMILES | MIC (Pseudomonas aeruginosa [1]) [µg/mL] | MIC (Staphylococcus aureus [2]) [µg/mL] | MIC (Acinetobacter baumannii [3]) [µg/mL] | MIC (Pseudomonas aeruginosa [4]) [µg/mL] | MIC (Escherichia coli [5]) [µg/mL] | MIC (Klebsiella pneumoniae) [µg/mL] | MIC (Escherichia coli [6]) [µg/mL] | MIC (Acinetobacter baumannii [7]) [µg/mL] | MIC (Escherichia coli [8]) [µg/mL] | MIC (Staphylococcus aureus [9]) [µg/mL] | MIC (Enterobacter cloacae) [µg/mL] | MIC (Staphylococcus aureus [10]) [µg/mL] | MIC (Escherichia coli [11]) [µg/mL] | MIC (Pseudomonas aeruginosa [12]) [µg/mL] | MIC (Staphylococcus aureus [13]) [µg/mL] | MIC (Escherichia coli [14]) [µg/mL]
1 | NCC[C@H](O)C(=O)N[C@@H]1C[C@H](N)[C@@H](O[C@H]2O[C@H](CO)[C@@H](O)[C@H](O)[C@H]2N)[C@H](O[C@@H]2O[C@H](CO)[C@@H](O[C@H]3O[C@@H](CN)[C@@H](O)[C@H](O)[C@H]3N)[C@H]2O)[C@H]1O | 4 (≈ 5.58 µM) | 2 (≈ 2.79 µM) | 2 (≈ 2.79 µM) | 8 (≈ 11.2 µM) | 4 (≈ 5.58 µM) | 1 (≈ 1.4 µM) | 8 (≈ 11.2 µM) | 64 (≈ 89.3 µM) | 2 (≈ 2.79 µM) | 32 (≈ 44.6 µM) | 8 (≈ 11.2 µM) | > 64 | 2 (≈ 2.79 µM) | 8 (≈ 11.2 µM) | 32 (≈ 44.6 µM) | 4 (≈ 5.58 µM)
2 | N[C@@H]1CC=C(CO)O[C@@H]1O[C@H]1[C@H](O[C@@H]2O[C@H](CO)[C@@H](O)[C@H]2O)[C@@H](O)[C@H](N)C[C@@H]1N | > 64 | > 64 | > 64 | > 64 | > 64 | > 64 | > 64 | > 64 | > 64 | > 64 | > 64 | > 64 | > 64 | > 64 | > 64 | > 64
3 | CN[C@@H]1[C@@H](O)[C@@H](O[C@@H]2[C@@H](O)[C@H](O[C@H]3OC(CN)=CC[C@H]3N)[C@@H](N)C[C@H]2N)OC[C@]1(C)O [SISOMICIN] | 1 (≈ 2.23 µM) | 0.5 (≈ 1.12 µM) | 0.5 (≈ 1.12 µM) | 0.5 (≈ 1.12 µM) | > 64 | 0.25 (≈ 0.559 µM) | 64 (≈ 143 µM) | > 64 | 0.25 (≈ 0.559 µM) | > 64 | > 64 | 1 (≈ 2.23 µM) | 0.5 (≈ 1.12 µM) | 32 (≈ 71.5 µM) | 0.25 (≈ 0.559 µM) | 32 (≈ 71.5 µM)
4 | NCC[C@H](O)C(=O)N[C@@H]1C[C@H](N)[C@@H](O[C@H]2O[C@H](CN)[C@@H](O)[C@H](O)[C@H]2N)[C@H](O[C@@H]2O[C@H](CO)[C@@H](O)[C@H]2O)[C@H]1O | > 32 | 8 (≈ 14.4 µM) | 1 (≈ 1.8 µM) | > 32 | 2 (≈ 3.6 µM) | 1 (≈ 1.8 µM) | 4 (≈ 7.2 µM) | > 32 | 1 (≈ 1.8 µM) | > 32 | 32 (≈ 57.6 µM) | > 32 | 2 (≈ 3.6 µM) | > 32 | > 32 | 2 (≈ 3.6 µM)
5 | NCC1=CC[C@H](N)[C@H](O[C@H]2[C@H](O[C@@H]3O[C@H](CO)[C@@H](O[C@@H]4O[C@H](CN)[C@H](O)[C@@H](O)[C@@H]4N)[C@H]3O)[C@@H](O)[C@H](N)C[C@@H]2N)O1 (stereo in doubt) | 1 (≈ 1.72 µM) | 1 (≈ 1.72 µM) | 1 (≈ 1.72 µM) | 0.5 (≈ 0.861 µM) | 2 (≈ 3.44 µM) | 0.5 (≈ 0.861 µM) | 2 (≈ 3.44 µM) | > 64 | > 64 | 64 (≈ 110 µM) | > 64 | 1 (≈ 1.72 µM) | 2 (≈ 3.44 µM) | > 64 | 16 (≈ 27.6 µM) | 8 (≈ 13.8 µM)
6 | NCC1O[C@H](O[C@H]2[C@@H](O)[C@H](O[C@H]3[C@H](O)[C@@H](N)C[C@@H](N)[C@@H]3O[C@H]3O[C@H](CN)[C@@H](O)[C@H](O)[C@H]3N)O[C@@H]2CO)[C@H](N)[C@@H](O)[C@@H]1O (stereo not given in full) | 8 (≈ 13 µM) | 0.5 (≈ 0.813 µM) | 1 (≈ 1.63 µM) | 32 (≈ 52.1 µM) | 1 (≈ 1.63 µM) | 0.5 (≈ 0.813 µM) | 2 (≈ 3.25 µM) | > 64 | 64 (≈ 104 µM) | > 64 | > 64 | > 64 | 2 (≈ 3.25 µM) | 8 (≈ 13 µM) | > 64 | 2 (≈ 3.25 µM)
7 | NCC[C@H](O)C(=O)N[C@@H]1C[C@H](N)[C@@H](O[C@H]2OC(CN)=CC[C@H]2N)[C@H](O[C@@H]2O[C@H](CO)[C@@H](O)[C@H]2O)[C@H]1O | 8 (≈ 15.3 µM) | 8 (≈ 15.3 µM) | 4 (≈ 7.67 µM) | 4 (≈ 7.67 µM) | 8 (≈ 15.3 µM) | 4 (≈ 7.67 µM) | 8 (≈ 15.3 µM) | 8 (≈ 15.3 µM) | 4 (≈ 7.67 µM) | 16 (≈ 30.7 µM) | > 64 | 8 (≈ 15.3 µM) | 8 (≈ 15.3 µM) | 16 (≈ 30.7 µM) | 16 (≈ 30.7 µM) | 8 (≈ 15.3 µM)
8 | NCC[C@H](O)C(=O)N[C@@H]1C[C@H](N)[C@@H](O[C@H]2O[C@H](CN)[C@@H](O)[C@H](O)[C@H]2O)[C@H](O)[C@H]1O[C@H]1O[C@H](CO)[C@@H](O)[C@H](N)[C@H]1O [AMIKACIN] | 32 (≈ 54.6 µM) | 2 (≈ 3.42 µM) | 2 (≈ 3.42 µM) | 2 (≈ 3.42 µM) | > 64 | 0.5 (≈ 0.854 µM) | 4 (≈ 6.83 µM) | > 64 | 0.5 (≈ 0.854 µM) | 64 (≈ 109 µM) | 64 (≈ 109 µM) | 64 (≈ 109 µM) | 2 (≈ 3.42 µM) | 4 (≈ 6.83 µM) | 8 (≈ 13.7 µM) | 2 (≈ 3.42 µM)
9 | NC[C@@H]1O[C@H](O[C@H]2[C@@H](O)[C@H](O[C@@H]3[C@@H](O)[C@H](N)C[C@H](N)[C@H]3O[C@H]3O[C@H](CO)[C@@H](O)[C@H](O)[C@H]3N)O[C@@H]2CO)[C@H](N)[C@@H](O)[C@@H]1O [PAROMOMYCIN] | > 64 | 2 (≈ 3.25 µM) | 4 (≈ 6.5 µM) | > 64 | 4 (≈ 6.5 µM) | 2 (≈ 3.25 µM) | 4 (≈ 6.5 µM) | > 64 | > 64 | > 64 | > 64 | > 64 | 4 (≈ 6.5 µM) | > 64 | > 64 | 8 (≈ 13 µM)
10 | CN[C@@H](C)[C@@H]1CC[C@@H](N)[C@@H](O[C@H]2[C@H](O)[C@@H](O[C@H]3OC[C@](C)(O)[C@H](NC)[C@H]3O)[C@H](N)C[C@@H]2N)O1 | 2 (≈ 4.19 µM) | 0.5 (≈ 1.05 µM) | 2 (≈ 4.19 µM) | 0.5 (≈ 1.05 µM) | > 64 | 0.25 (≈ 0.523 µM) | 64 (≈ 134 µM) | > 64 | 0.25 (≈ 0.523 µM) | > 64 | 32 (≈ 67 µM) | 0.5 (≈ 1.05 µM) | 0.5 (≈ 1.05 µM) | 32 (≈ 67 µM) | 0.5 (≈ 1.05 µM) | 16 (≈ 33.5 µM)

Other lines, results leading:

Row | MIC (Pseudomonas aeruginosa [1]) [µg/mL] | MIC (Staphylococcus aureus [2]) [µg/mL] | MIC (Acinetobacter baumannii [3]) [µg/mL] | MIC (Pseudomonas aeruginosa [4]) [µg/mL] | MIC (Escherichia coli [5]) [µg/mL] | MIC (Klebsiella pneumoniae) [µg/mL] | MIC (Escherichia coli [6]) [µg/mL] | MIC (Acinetobacter baumannii [7]) [µg/mL] | MIC (Escherichia coli [8]) [µg/mL] | MIC (Staphylococcus aureus [9]) [µg/mL] | MIC (Enterobacter cloacae) [µg/mL] | MIC (Staphylococcus aureus [10]) [µg/mL] | MIC (Escherichia coli [11]) [µg/mL] | MIC (Pseudomonas aeruginosa [12]) [µg/mL] | MIC (Staphylococcus aureus [13]) [µg/mL] | MIC (Escherichia coli [14]) [µg/mL] | SMILES
11 | > 64 | 8 (≈ 13.8 µM) | > 64 | > 64 | > 64 | > 64 | > 64 | > 64 | > 64 | > 64 | > 64 | 16 (≈ 27.5 µM) | > 64 | > 64 | > 64 | > 64 | NC[C@H]1O[C@@H](O[C@H]2[C@@H](O)[C@H](O[C@@H]3[C@@H](O)[C@H](N)C[C@H](N)[C@H]3O[C@@H]3OC(CO)=CC[C@@H]3N)O[C@@H]2CO)[C@@H](N)[C@H](O)[C@H]1O (stereo in doubt)
12 | 4 (≈ 6.73 µM) | 1 (≈ 1.68 µM) | 4 (≈ 6.73 µM) | 2 (≈ 3.36 µM) | 16 (≈ 26.9 µM) | 2 (≈ 3.36 µM) | 16 (≈ 26.9 µM) | > 64 | > 64 | > 64 | > 64 | 2 (≈ 3.36 µM) | 8 (≈ 13.5 µM) | > 64 | 16 (≈ 26.9 µM) | 8 (≈ 13.5 µM) | CNCC1=CC[C@H](N)[C@H](O[C@H]2[C@H](O[C@@H]3O[C@H](CO)[C@@H](O[C@@H]4O[C@H](CN)[C@H](O)[C@@H](O)[C@@H]4N)[C@H]3O)[C@@H](O)[C@H](N)C[C@@H]2N)O1
13 | > 64 | 16 (≈ 35.2 µM) | 8 (≈ 17.6 µM) | > 64 | 8 (≈ 17.6 µM) | 2 (≈ 4.4 µM) | 8 (≈ 17.6 µM) | > 64 | > 64 | > 64 | > 64 | > 64 | 8 (≈ 17.6 µM) | > 64 | > 64 | > 64 | NC[C@H]1O[C@H](O[C@H]2[C@H](O[C@@H]3O[C@H](CO)[C@@H](O)[C@H]3O)[C@@H](O)[C@H](N)C[C@@H]2N)[C@H](N)[C@@H](O)[C@@H]1O [RIBOSTAMYCIN]
14 | 64 (≈ 152 µM) | 16 (≈ 38.1 µM) | > 64 | 16 (≈ 38.1 µM) | 64 (≈ 152 µM) | 16 (≈ 38.1 µM) | > 64 | > 64 | 64 (≈ 152 µM) | > 64 | > 64 | 16 (≈ 38.1 µM) | 64 (≈ 152 µM) | > 64 | > 64 | > 64 | NCC1=CC[C@@H](N)[C@@H](O[C@H]2[C@H](O[C@@H]3O[C@H](CO)[C@@H](O)[C@H]3O)[C@@H](O)[C@H](N)C[C@@H]2N)O1
15 | 0.5 (≈ 0.733 µM) | 0.5 (≈ 0.733 µM) | 0.5 (≈ 0.733 µM) | 0.25 (≈ 0.367 µM) | 1 (≈ 1.47 µM) | 0.5 (≈ 0.733 µM) | 4 (≈ 5.87 µM) | 1 (≈ 1.47 µM) | 0.25 (≈ 0.367 µM) | 2 (≈ 2.93 µM) | 8 (≈ 11.7 µM) | 1 (≈ 1.47 µM) | 0.5 (≈ 0.733 µM) | 0.5 (≈ 0.733 µM) | 1 (≈ 1.47 µM) | 1 (≈ 1.47 µM) | NCC[C@H](O)C(=O)N[C@@H]1C[C@H](N)[C@@H](O[C@H]2OC(CN)=CC[C@H]2N)[C@H](O[C@@H]2O[C@H](CO)[C@@H](O[C@@H]3O[C@H](CN)[C@H](O)[C@@H](O)[C@@H]3N)[C@H]2O)[C@H]1O
